# How the values were obtained:
# [1] = n-Octanol/PBS distribution coefficient (log D); type: physicochemical
# Experimental: The n-octanol/PBS distribution coefficient of the five exemplified PSMA-binding agents ^177Lu-Ibu-PSMA, ^177Lu-Ibu-Dα-PSMA, ^177Lu-Ibu-Dβ-PSMA, ^177Lu-Ibu-N-PSMA and ^177Lu-Ibu-DAB-PSMA in a n-octanol/PBS system was performed in a similar manner as previously reported (Benesova, M.; Umbricht, C. A.; Schibli, R.; Müller, C. Albumin-binding PSMA ligands: optimization of the tissue distribution profile. Mol Pharm 2018, 15, (3), 934-946).
# PSMA = target: T1, PSMA (Homo sapiens, UniProt Q04609); assay: Determination of KD values (PSMA-binding affinity); conditions: PSMA-binding affinity of the 177Lu radioligand
# T1 construct: expressed in transfected cells; host or cells: PC-3 PIP (PSMA-transfected PC-3 human prostate cancer cells), from Prof; Martin Pomper
# Experimental: The KD values, indicating the PSMA-binding affinity of the novel radioligand, were determined.
# [2] = tested on: PC-3 PIP/flu tumor-bearing mice; assay: Biodistribution study in PC-3 PIP/flu tumor-bearing mice; type: in vivo, athymic nude Balb/c mice; conditions: for Blood / Bone / Heart / Intestines / Kidneys / Liver / Lung / Muscle / Salivary glands / Spleen / Stomach / Tumor-to-blood / Tumor-to-kidney / Tumor-to-liver: PC-3 PIP/flu tumor-bearing mice; for PC-3 flu Tumor: PSMA-negative tumor xenograft; for PC-3 flu Tumor / PC-3 PIP Tumor: mice; for PC-3 PIP Tumor: PSMA-positive tumor xenograft
# Radiolytic stability = type: physicochemical; conditions: 250 MBq/500 μL saline, room temperature, with or without L-ascorbic acid
# Experimental: Radiolytic stability over time was assessed for Ibu-sPSMA in three independent experiments. For this purpose, Ibu-sPSMA was labeled with ^177Lu in a volume of 120 μL at a specific activity of 50 MBq/nmol with or without the addition of L-ascorbic acid (3 mg). After quality control using HPLC (t=0, radiochemical purity ≥98%), the labeling solutions were diluted with saline to 250 MBq/500 μL and incubated at room temperature. The radioligand's integrity was determined by HPLC after 1 h, 4 h and 24 h incubation time as previously reported (Siwowska et al., Mol. Pharmaceutical 2017, 14, (2), 523-532). The HPLC chromatograms were analyzed by integration of the peaks representing the radiolabeled product, the released ^177Lu as well as degradation products of unknown structure (FIG. 15). A quantitative assessment was performed by expressing the peak area of the intact product as percentage of the sum of integrated peak areas of the entire chromatogram.
# T1 sequence (Q04609 whole entry): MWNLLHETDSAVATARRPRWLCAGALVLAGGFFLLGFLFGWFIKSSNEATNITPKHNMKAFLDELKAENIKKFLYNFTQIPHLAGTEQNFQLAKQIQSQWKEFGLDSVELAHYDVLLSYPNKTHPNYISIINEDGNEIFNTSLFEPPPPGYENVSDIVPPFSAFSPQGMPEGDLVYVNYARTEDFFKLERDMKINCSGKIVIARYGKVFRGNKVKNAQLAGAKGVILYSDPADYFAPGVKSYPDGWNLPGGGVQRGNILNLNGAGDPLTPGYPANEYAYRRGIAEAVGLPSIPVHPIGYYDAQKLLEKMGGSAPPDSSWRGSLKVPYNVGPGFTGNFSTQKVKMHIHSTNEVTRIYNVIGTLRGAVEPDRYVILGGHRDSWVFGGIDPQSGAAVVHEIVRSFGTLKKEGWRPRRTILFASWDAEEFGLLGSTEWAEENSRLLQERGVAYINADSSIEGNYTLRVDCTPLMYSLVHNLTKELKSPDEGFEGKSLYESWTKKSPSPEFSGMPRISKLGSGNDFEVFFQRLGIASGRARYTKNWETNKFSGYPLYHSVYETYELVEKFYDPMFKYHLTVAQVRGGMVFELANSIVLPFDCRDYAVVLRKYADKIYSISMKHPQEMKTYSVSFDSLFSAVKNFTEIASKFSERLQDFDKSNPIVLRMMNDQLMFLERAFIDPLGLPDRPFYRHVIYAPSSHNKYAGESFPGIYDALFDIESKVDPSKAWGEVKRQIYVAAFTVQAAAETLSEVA
compound,measurement,setting,value
"CC(C)Cc1ccc(C(C)C(=O)NCC[C@H](NC(=O)CN2CCN(CC(=O)O)CCN(CC(=O)O)CCN(CC(=O)O)CC2)C(=O)NCC2CCC(C(=O)N[C@@H](Cc3ccc4ccccc4c3)C(=O)NCCCC[C@H](NC(=O)N[C@@H](CCC(=O)O)C(=O)O)C(=O)O)CC2)cc1 (stereo partly shown) [^177Lu-Ibu-sPSMA, metal not drawn]",logD,[1],-2.43 ± 0.01
same,Kd,PSMA,40 ± 5 nM
same,Blood,[2]; 1 h p.i.,29±4 % IA/g
same,Bone,[2]; 1 h p.i.,3.3 ± 0.4 % IA/g
same,Heart,[2]; 1 h p.i.,9.3 ± 1.5 % IA/g
same,Intestines,[2]; 1 h p.i.,2.9 ± 0.3 % IA/g
same,Kidneys,[2]; 1 h p.i.,114±15 % IA/g
same,Liver,[2]; 1 h p.i.,17±4 % IA/g
same,Lung,[2]; 1 h p.i.,17 ± 3 % IA/g
same,Muscle,[2]; 1 h p.i.,3.1 ± 0.7 % IA/g
same,Salivary glands,[2]; 1 h p.i.,6.6 ± 0.5 % IA/g
same,Spleen,[2]; 1 h p.i.,5.8 ± 1.2 % IA/g
same,Stomach,[2]; 1 h p.i.,2.6 ± 0.5 % IA/g
same,Tumor-to-blood,[2]; 1 h p.i.,2.2 ± 0.1
same,Tumor-to-kidney,[2]; 1 h p.i.,0.56±0.09
same,Tumor-to-liver,[2]; 1 h p.i.,3.7 ± 0.5
same,PC-3 flu Tumor,[2]; 1 h p.i.,5.1 ± 0.7 % IA/g
same,PC-3 PIP Tumor,[2]; 1 h p.i.,63±8 % IA/g
same,Blood,[2]; 4 h p.i.,7.2 ± 0.7 % IA/g
same,Bone,[2]; 4 h p.i.,1.1 ± 0.2 % IA/g
same,Heart,[2]; 4 h p.i.,2.4 ± 0.2 % IA/g
same,Intestines,[2]; 4 h p.i.,1.1 ± 0.2 % IA/g
same,Kidneys,[2]; 4 h p.i.,28 ± 2 % IA/g
same,Liver,[2]; 4 h p.i.,7.2±0.5 % IA/g
same,Lung,[2]; 4 h p.i.,4.9 ± 0.7 % IA/g
same,Muscle,[2]; 4 h p.i.,0.84 ± 0.14 % IA/g
same,Salivary glands,[2]; 4 h p.i.,1.9 ± 0.2 % IA/g
same,Spleen,[2]; 4 h p.i.,2.1 ± 0.3 % IA/g
same,Stomach,[2]; 4 h p.i.,1.3 ± 0.9 % IA/g
same,Tumor-to-blood,[2]; 4 h p.i.,14 ± 3
same,Tumor-to-kidney,[2]; 4 h p.i.,3.6 ± 0.2
same,Tumor-to-liver,[2]; 4 h p.i.,14 ± 2
same,PC-3 flu Tumor,[2]; 4 h p.i.,2.0 ± 0.3 % IA/g
same,PC-3 PIP Tumor,[2]; 4 h p.i.,99 ± 7 % IA/g
same,Blood,[2]; 24 h p.i.,0.76 ± 0.07 % IA/g
same,Bone,[2]; 24 h p.i.,0.27 ± 0.04 % IA/g
same,Heart,[2]; 24 h p.i.,0.39 ± 0.04 % IA/g
same,Intestines,[2]; 24 h p.i.,0.31 ± 0.07 % IA/g
same,Kidneys,[2]; 24 h p.i.,10 ± 2 % IA/g
same,Liver,[2]; 24 h p.i.,0.81 ± 0.09 % IA/g
same,Lung,[2]; 24 h p.i.,0.79 ± 0.07 % IA/g
same,Muscle,[2]; 24 h p.i.,0.14 ± 0.02 % IA/g
same,Salivary glands,[2]; 24 h p.i.,0.37 ± 0.05 % IA/g
same,Spleen,[2]; 24 h p.i.,0.72 ± 0.15 % IA/g
same,Stomach,[2]; 24 h p.i.,0.50 ± 0.19 % IA/g
same,Tumor-to-blood,[2]; 24 h p.i.,173 ± 18
same,Tumor-to-kidney,[2]; 24 h p.i.,13 ± 2
same,Tumor-to-liver,[2]; 24 h p.i.,163 ± 16
same,PC-3 flu Tumor,[2]; 24 h p.i.,0.66 ± 0.07 % IA/g
same,PC-3 PIP Tumor,[2]; 24 h p.i.,132±15 % IA/g
same,Blood,[2]; 96 h p.i.,0.27 ± 0.02 % IA/g
same,Bone,[2]; 96 h p.i.,0.08 ± 0.01 % IA/g
same,Heart,[2]; 96 h p.i.,0.12 ± 0.01 % IA/g
same,Intestines,[2]; 96 h p.i.,0.13 ± 0.03 % IA/g
same,Kidneys,[2]; 96 h p.i.,2.3 ± 0.3 % IA/g
same,Liver,[2]; 96 h p.i.,0.22 ± 0.02 % IA/g
same,Lung,[2]; 96 h p.i.,0.25 ± 0.03 % IA/g
same,Muscle,[2]; 96 h p.i.,0.04 ± 0.02 % IA/g
same,Salivary glands,[2]; 96 h p.i.,0.11 ± 0.02 % IA/g
same,Spleen,[2]; 96 h p.i.,0.22 ± 0.03 % IA/g
same,Stomach,[2]; 96 h p.i.,0.73 ± 0.82 % IA/g
same,Tumor-to-blood,[2]; 96 h p.i.,210 ± 35
same,Tumor-to-kidney,[2]; 96 h p.i.,25 ± 2
same,Tumor-to-liver,[2]; 96 h p.i.,263 ± 42
same,PC-3 flu Tumor,[2]; 96 h p.i.,0.15 ± 0.02 % IA/g
same,PC-3 PIP Tumor,[2]; 96 h p.i.,57±9 % IA/g
same,radiolytic stability (percentage of intact radioligand up to 24 h),Radiolytic stability,significantly more stable than ^177Lu-PSMA-617 and all other ibuprofen-derivatized PSMA radioligands
